Columns and labels:
[1] = system: a-core (DNA, G4) AGGGTTAGGGTTAGGGTTAGGG; assay: CD melting, 290 nm; details: 50 mM Tris-HCl pH 7.4, 3.0 µM compound, 1.5 µM DNA
[2] = system: dsDNA (DNA, duplex) GGGAGGTTTCGC/GCGAAACCTCCC; assay: UV melting, 260 nm; details: 100 mM KCl, 50 mM Tris-HCl pH 7.4, same value in NaCl
[3] = system: a-core (DNA, G4) AGGGTTAGGGTTAGGGTTAGGG; assay: UV-Vis titration, Scatchard; details: 50 mM Tris-HCl pH 7.4, 25 °C
[4] = system: a-coreTT (DNA, G4) AGGGTTAGGGTTAGGGTTAGGGTT; assay: UV-Vis titration, Scatchard; details: 100 mM KCl; 50 mM Tris-HCl pH 7.4, 25 °C
[5] = system: TBA (DNA, G4) GGTTGGTGTGGTTGG; assay: UV-Vis titration, Scatchard; details: 100 mM KCl; 50 mM Tris-HCl pH 7.4, 25 °C
[6] = system: c-kit (DNA, G4) AGGGAGGGCGCTGGGAGGAGGAGGG; assay: UV-Vis titration, Scatchard; details: 100 mM KCl; 50 mM Tris-HCl pH 7.4, 25 °C
[7] = system: c-myc (DNA, G4) TGAGGGTGGGGAGGGTGGGGAA; assay: UV-Vis titration, Scatchard; details: 100 mM KCl; 50 mM Tris-HCl pH 7.4, 25 °C
[8] = system: dsDNA (DNA, duplex) GGGAGGTTTCGC/GCGAAACCTCCC; assay: UV-Vis titration, Scatchard; details: 100 mM KCl; 50 mM Tris-HCl pH 7.4, 25 °C; 0.60 ± 0.08 in 100 mM NaCl
[9] = system: F21T (DNA, G4) GGGTTAGGGTTAGGGTTAGGG; assay: FRET melting; details: 150 mM KCl; 100 mM Tris-HCl pH 7.4; 0.4 µM compound, 0.2 µM F21T
[10] = system: a-coreTT (DNA, G4) AGGGTTAGGGTTAGGGTTAGGGTT; assay: CD melting, 290 nm; details: 100 mM KCl; 50 mM Tris-HCl pH 7.4; 3.0 µM compound, 1.5 µM DNA
[11] = system: TBA (DNA, G4) GGTTGGTGTGGTTGG; assay: CD melting, 290 nm; details: 100 mM KCl; 50 mM Tris-HCl pH 7.4; 3.0 µM compound, 1.5 µM DNA
[12] = system: c-kit (DNA, G4) AGGGAGGGCGCTGGGAGGAGGAGGG; assay: CD melting, 262 nm; details: 20 mM KCl; 50 mM Tris-HCl pH 7.4; 3.0 µM compound, 1.5 µM DNA
[13] = system: c-myc (DNA, G4) TGAGGGTGGGGAGGGTGGGGAA; assay: CD melting, 262 nm; details: 5 mM KCl; 50 mM Tris-HCl pH 7.4; 3.0 µM compound, 1.5 µM DNA

∆Tm ([1]; 100 mM KCl) [°C] | ∆Tm ([1]; 100 mM NaCl) [°C] | ∆Tm ([2]; 2:1 ligand:DNA) [°C] | K ([3]; 100 mM KCl) | K ([3]; 100 mM NaCl) | K [4] | K [5] | K [6] | K [7] | K [8] | Tm increase [9] [°C] | ∆Tm [10] [°C] | ∆Tm [11] [°C] | ∆Tm [12] [°C] | ∆Tm [13] [°C] | ∆Tm ([2]; 2:1 ligand:DNA in table (text: 1-fold)) [°C] | SMILES
5 | 1 | 12 | 1.6 ± 0.2 × 10^6 M^-1 | 0.73 ± 0.09 × 10^6 M^-1 | 1.9 ± 0.3 × 10^6 M^-1 | 0.49 ± 0.04 × 10^6 M^-1 | 0.74 ± 0.05 × 10^6 M^-1 | 1.5 ± 0.2 × 10^6 M^-1 | 0.60 ± 0.04 × 10^6 M^-1 |  |  |  |  |  |  | CN(C)CCCN1C(=O)c2ccc3c4c(ccc(c24)C1=O)C(=O)N(CCCN(C)C)C3=O
15 |  |  | 10 ± 0.5 × 10^6 M^-1 | 1.0 ± 0.04 × 10^6 M^-1 | 6.1 ± 0.4 × 10^6 M^-1 | 3.5 ± 0.2 × 10^6 M^-1 | 1.9 ± 0.18 × 10^6 M^-1 | 4.0 ± 0.3 × 10^6 M^-1 |  | 11 | 18 | 11 | 11 | 15 | 0.3 | CN1CCCNC(=O)c2ccc(cc2)C(=O)NCCCN(C)CCCN2C(=O)c3ccc4c5c(ccc(c35)C2=O)C(=O)N(CCC1)C4=O

Source: article PMC6272171 (2015)
